Test results published in PMC7796460, “Relation of Metal-Binding Property and Selective Toxicity of 8-Hydroxyquinoline Derived Mannich Bases Targeting Multidrug Resistant Cancer Cells” (Cancers, 2021).

Legend:
[1] = set-up: method as in PMID 30460942; details: copper(II) complex of the ligand; cited from earlier work
[2] = Reduction of in situ formed copper(II) complexes by GSH, followed spectrophotometrically; format: physicochemical; details: 1:1 metal to ligand, 5 eq GSH (Figure 5B)
Source text: Disruption of cellular redox homeostasis can be responsible for the toxicity of an anticancer agent. […] In addition to their redox potentials, redox cycling of the complexed metal ions is also influenced by the kinetics of the reduction and re-oxidation reactions. Reduction of iron(III) and copper(II) complexes by the physiologically relevant reducing agents glutathione (GSH) and ascorbate was followed spectrophotometrically. Although GSH is a stronger reducing agent than ascorbate, ascorbate reacted considerably faster with the iron(III) complexes (Figure 5A), while reduction by GSH seemed to be kinetically hindered (not shown). […]
Figure 5 Reduction of the in situ formed iron(III) and copper(II) complexes from equimolar metal-to-ligand ratios with antioxidants was followed spectrophotometrically by the decrease in the respective absorbance maxima. (A) Time-dependent decrease of the absorbance values in equimolar 1:1 metal to ligand mixtures of FeCl3 with Q-1 at 356 nm (black), Q-2 at 348 nm (blue), Q-3 at 334 nm (green) and Q-4 at 328 nm upon addition of 2.5 equivalents of ascorbate. (B) Time-dependent decrease of the absorbance values in equimolar 1:1 metal to ligand mixtures of CuCl2 with Q-1 at 370 nm (black), Q-2 at 372 nm (blue), Q-3 at 368 nm (green) and Q-4 at 430 nm upon addition of 5 eq GSH. […]

SMILES	pKa CuLH (logβCuLH − logβCuL) [1]	Time until half of the initial copper(II) complex is reduced by GSH [2]
Oc1c(CNCc2ccccc2F)cc(Cl)c2cccnc12 [Compound Q-4, 5-chloro-7-((2-fluorobenzylamino)methyl)quinolin-8-ol]	5.91	not yet fully reached after two hours
Oc1c(CN2CCOCC2)ccc2cccnc12 [Compound Q-2, 7-(morpho-lino-methyl)quinolin-8-ol]	–	within the first minute
